From US6710060B2, “4-hydroxypiperidine derivatives having antiarrhythmic activity” (Mochida Pharmaceutical Co., Ltd., priority 1999, dated 2004)
Each block holds one compound with its values, some of them ahead of it.

Compound: CCCCOc1ccc(N(C)CCC2(O)CCN(C3Cc4ccccc4C3)CC2)cc1 [Example 32, 4-[2-[N-(4-n-butoxyphenyl)-N-methylamino]ethyl]-1-(2,3-dihydro-1H-indene-2-yl)piperidin-4-ol]
melting point: 94.4 to 94.6 °C

Compound: CCCCOc1ccc(N(C)CCC2(O)CCN(CC(O)c3ccccc3)CC2)cc1 (centres unmarked) [Example 54, 4-[2-[N-(4-n-butoxyphenyl)-N-methylamino]-ethyl]-1-(2-phenyl-2-hydroxyethyl)piperidin-4-ol]
melting point: 104 to 104.8 °C

Compound: CCCCOc1ccc(N(C)CCC2(O)CCN(CC(O)c3ccc(F)cc3)CC2)cc1 (centres unmarked) [Example 55, 4-[2-[N-(4-n-butoxyphenyl)-N-methylamino]ethyl]-1-[2-(4-fluorophenyl)-2-hydroxyethyl]piperidin-4-ol]
melting point: 92.8 to 94.5 °C

Compound: CCCCOc1ccc(N(CCC2(O)CCN(Cc3ccccc3)CC2)C(C)=O)cc1 [Example 56, 4-[2-[N-acetyl-N-(4-n-butoxyphenyl)amino]-ethyl]-1-benzylpiperidin-4-ol]
melting point: 89.7 to 90.6 °C

Compound: CCCCOc1ccc(N(CCC2(O)CCN(CCc3ccc(F)cc3)CC2)C(C)=O)cc1 [Example 57, 4-[2-[N-acetyl-N-(4-n-butoxyphenyl)amino]ethyl]-1-[2-(4-fluorophenyl)ethyl]piperidin-4-ol]
melting point: 121.6 to 122.1 °C

Compound: CC(C)Oc1ccc(N(C)CCC2(O)CCN(Cc3ccc(F)cc3F)CC2)cc1 [Example 87, 1-(2,4-difluorophenylmethyl)-4-[2-[N-methyl-N-(4-isopropoxyphenyl)amino]ethyl]piperidin-4-ol]
melting point: 77.6 to 77.9 °C

Compound: CC(C)Oc1ccc(N(C)CCC2(O)CCN(Cc3ccc(F)c(C(F)(F)F)c3)CC2)cc1 [Example 88, 1-[4-fluoro-3-(trifluoromethyl)phenylmethyl]-4-[2-[N-methyl-N-(4-isopropoxyphenyl)amino]ethyl]piperidin-4-ol]
melting point: 58.8 to 62.8 °C

Compound: CC(C)Oc1ccc(N(C)CCC2(O)CCN(Cc3ccc(OC(F)(F)F)cc3)CC2)cc1 [Example 89, 4-[2-[N-methyl-N-(4-isopropoxyphenyl)amino]ethyl]-1-(4-trifluoromethoxyphenylmethyl)piperidin-4-ol]
melting point: 84.7 to 85.1 °C

Compound: CC(C)Oc1ccc(N(C)CCC2(O)CCN(Cc3ccc(OC(C)C)cc3F)CC2)cc1 [Example 90, 1-(2-fluoro-4-isopropoxyphenylmethyl)-4-[2-[N-methyl-N-(4-isopropoxyphenyl)amino]ethyl]piperidin-4-ol]
melting point: 65.1 to 66.1 °C

Compound: CC(C)Oc1ccc(N(C)CCC2(O)CCN(Cc3ccc(Br)cc3F)CC2)cc1 [Example 93, 1-(4-bromo-2-fluorophenylmethyl)-4-[2-[N-methyl-N-(4-isopropoxyphenyl)amino]ethyl]piperidin-4-ol]
melting point: 99.8 to 100.9 °C

Compound: CCOC(=O)c1ccc(CN2CCC(O)(CCN(C)c3ccc(OC(C)C)cc3)CC2)cc1 [Example 106, 1-[4-(ethoxycarbonyl)phenylmethyl]-4-[2-[N-methyl-N-(4-isopropoxyphenyl)amino]ethyl]piperidin-4-ol]
melting point: 50.3 to 51.6 °C

Compound: COC(=O)c1cccc(CN2CCC(O)(CCN(C)c3ccc(OC(C)C)cc3)CC2)c1 [Example 111, 1-[3-(methoxycarbonyl)phenylmethyl]-4-[2-[N-methyl-N-(4-isopropoxyphenyl)amino]ethyl]piperidin-4-ol]
melting point: 53.8 to 54.7 °C

Compound: CC(C)Oc1ccc(NCCC2(O)CCN(Cc3ccc(C(F)(F)F)cc3)CC2)cc1 [Example 125, 4-[2-[N-(4-isopropoxyphenyl)amino]ethyl]-1-[4-(trifluoromethyl)phenylmethyl]piperidin-4-ol]
melting point: 152.3 to 153.1 °C

Compound: CCOc1ccc(N(C)CCC2(O)CCN(C(c3ccccc3)c3ccccc3)CC2)cc1 [Example 133, 1-diphenylmethyl-4-[2-[N-(4-ethoxyphenyl)-N-methylamino]ethyl]piperidin-4-ol]
melting point: 94.3 to 95.8 °C

Compound: CC(C)Oc1ccc(NCCC2(O)CCN(C(c3ccccc3)c3ccccc3)CC2)cc1 [Example 136, 1-diphenylmethyl-4-[2-[N-(4-isopropoxyphenyl)-amino]ethyl]piperidin-4-ol]
melting point: 170 to 171.2 °C

Next, values leading:

melting point: 104.3 to 105 °C
Compound: CC(C)Oc1ccc(N(C)CCC2(O)CCN(Cc3ccc(Br)cc3)CC2)cc1 [Example 73, 1-(4-bromophenylmethyl)-4-[2-[N-methyl-N-(4-isopropoxyphenyl)amino]ethyl]piperidin-4-ol]

melting point: 109.9 to 110.6 °C
Compound: CC(C)Oc1ccc(N(C)CCC2(O)CCN(Cc3ccc(C(F)(F)F)cc3)CC2)cc1 [Example 74, 4-[2-[N-methyl-N-(4-isopropoxyphenyl)amino]ethyl]-1-[4-(trifluoromethyl)phenylmethyl]piperidin-4-ol]

melting point: 50.8 to 52.4 °C
Compound: COc1ccc(CN2CCC(O)(CCN(C)c3ccc(OC(C)C)cc3)CC2)cc1 [Example 76, 1-(4-methoxyphenylmethyl)-4-[2-[N-methyl-N-(4-isopropoxyphenyl)amino]ethyl]piperidin-4-ol]

melting point: 45.1 to 46.5 °C
Compound: COc1cccc(CN2CCC(O)(CCN(C)c3ccc(OC(C)C)cc3)CC2)c1 [Example 77, 1-(3-methoxyphenylmethyl)-4-[2-[N-methyl-N-(4-isopropoxyphenyl)amino]ethyl]piperidin-4-ol]

melting point: 69.2 to 70 °C
Compound: CC(C)Oc1ccc(N(C)CCC2(O)CCN(Cc3ccc(F)cc3)CC2)cc1 [Example 78, 1-(4-fluorophenylmethyl)-4-[2-[N-methyl-N-(4-isopropoxyphenyl)amino]ethyl]piperidin-4-ol]

melting point: 108.1 to 109.5 °C
Compound: CC(C)Oc1ccc(N(C)CCC2(O)CCN(Cc3ccc(C#N)cc3)CC2)cc1 [Example 79, 1-(4-cyanophenylmethyl)-4-[2-[N-methyl-N-(4-isopropoxyphenyl)amino]ethyl]piperidin-4-ol]

melting point: 76.2 to 76.8 °C
Compound: CC(C)Oc1ccc(N(C)CCC2(O)CCN(Cc3ccc4ccccc4c3)CC2)cc1 [Example 80, 4-[2-[N-methyl-N-(4-isopropoxyphenyl)amino]ethyl]-1-(2-naphthylmethyl)piperidin-4-ol]

melting point: 62.5 to 63.1 °C
Compound: CC(C)Oc1ccc(N(C)CCC2(O)CCN(Cc3ccc([N+](=O)[O-])cc3)CC2)cc1 [Example 84, 4-[2-[N-methyl-N-(4-isopropoxyphenyl)amino]ethyl]-1-(4-nitrophenylmethyl)piperidin-4-ol]

melting point: 60.8 to 61.1 °C
Compound: CC(C)Oc1ccc(N(C)CCC2(O)CCN(Cc3cccc(C(F)(F)F)c3)CC2)cc1 [Example 85, 4-[2-[N-methyl-N-(4-isopropoxyphenyl)amino]ethyl]-1-[3-(trifluoromethyl)phenylmethyl]piperidin-4-ol]

melting point: 52.5 to 54.6 °C
Compound: CC(C)Oc1ccc(N(C)CCC2(O)CCN(Cc3cccc(F)c3)CC2)cc1 [Example 94, 1-(3-fluorophenylmethyl)-4-[2-[N-methyl-N-(4-isopropoxyphenyl)amino]ethyl]piperidin-4-ol]

melting point: 66.2 to 68 °C
Compound: CSc1ccc(CN2CCC(O)(CCN(C)c3ccc(OC(C)C)cc3)CC2)cc1 [Example 109, 4-[2-[N-methyl-N-(4-isopropoxyphenyl)amino]ethyl]-1-[4-(methylthio)phenylmethyl]piperidin-4-ol]
